Reference: PubChem BioAssay (NCI)
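Tested at 5 concentrations; 48 h exposure; 96-well plates; endpoints linearly interpolated, else capped at highest concentration. The concentration for full growth arrest is given as TGI.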

Assays:
Assay in all cases: NCI-60 cell line screen, 48 h
ACHN renal = system: ACHN renal
HOP-62 NSCLC = system: HOP-62 NSCLC
EKVX NSCLC = system: EKVX NSCLC
786-0 renal = system: 786-0 renal
U251 CNS = system: U251 CNS
PC-3 prostate = system: PC-3 prostate
UO-31 renal = system: UO-31 renal
NCI-H23 lung = system: NCI-H23 lung
IGROV1 ovarian = system: IGROV1 ovarian
SK-OV-3 ovarian = system: SK-OV-3 ovarian
SR leukemia = system: SR leukemia
COLO 205 colon = system: COLO 205 colon
SF-268 CNS = system: SF-268 CNS
SF-295 CNS = system: SF-295 CNS
A549 NSCLC = system: A549 NSCLC
A498 renal = system: A498 renal
BT-549 breast = system: BT-549 breast
M14 melanoma = system: M14 melanoma
SK-MEL-2 melanoma = system: SK-MEL-2 melanoma

## COc1ccc(C(=O)/C=C2\c3ccccc3C(=O)N2C)cc1
ACHN renal
  TGI: > 100 µM
HOP-62 NSCLC
  TGI: > 100 µM
EKVX NSCLC
  TGI: > 100 µM
786-0 renal
  TGI: > 100 µM
U251 CNS
  TGI: > 100 µM
PC-3 prostate
  TGI: > 100 µM
UO-31 renal
  TGI: > 100 µM
NCI-H23 lung
  TGI: > 100 µM
IGROV1 ovarian
  TGI: > 100 µM
SK-OV-3 ovarian
  TGI: > 100 µM
SR leukemia
  TGI: > 100 µM
COLO 205 colon
  TGI: > 100 µM
SF-268 CNS
  TGI: > 100 µM
SF-295 CNS
  TGI: > 100 µM
A549 NSCLC
  TGI: > 100 µM
A498 renal
  TGI: > 100 µM
BT-549 breast
  TGI: > 100 µM
M14 melanoma
  TGI: > 100 µM
SK-MEL-2 melanoma
  TGI: > 100 µM

## Oc1ccc(-c2c3ccccc3c(-c3ccc(OCCBr)cc3)c3ccccc23)cc1
ACHN renal
  TGI: 90.7 µM
HOP-62 NSCLC
  TGI: 50.6 µM
EKVX NSCLC
  TGI: > 100 µM
786-0 renal
  TGI: 44.5 µM
U251 CNS
  TGI: 53.3 µM
PC-3 prostate
  TGI: 73.2 µM
UO-31 renal
  TGI: > 100 µM
NCI-H23 lung
  TGI: 34.9 µM
IGROV1 ovarian
  TGI: 44.2 µM
SK-OV-3 ovarian
  TGI: > 100 µM
SR leukemia
  TGI: 92.6 µM
COLO 205 colon
  TGI: 96.9 µM
SF-268 CNS
  TGI: > 100 µM
SF-295 CNS
  TGI: 32.7 µM
A549 NSCLC
  TGI: 69.1 µM
A498 renal
  TGI: 40 µM
BT-549 breast
  TGI: 57.4 µM
M14 melanoma
  TGI: 37 µM
SK-MEL-2 melanoma
  TGI: 63.5 µM

## CCOC(=O)C1(Cc2ccccc2)Cc2cc3c(cc2C1=O)CCC3 (configuration not stated)
ACHN renal
  TGI: > 100 µM
HOP-62 NSCLC
  TGI: > 100 µM
EKVX NSCLC
  TGI: > 100 µM
786-0 renal
  TGI: > 100 µM
U251 CNS
  TGI: > 100 µM
PC-3 prostate
  TGI: > 100 µM
UO-31 renal
  TGI: > 100 µM
NCI-H23 lung
  TGI: > 100 µM
IGROV1 ovarian
  TGI: > 100 µM
SK-OV-3 ovarian
  TGI: > 100 µM
SR leukemia
  TGI: > 100 µM
COLO 205 colon
  TGI: > 100 µM
SF-268 CNS
  TGI: > 100 µM
SF-295 CNS
  TGI: > 100 µM
A549 NSCLC
  TGI: > 100 µM
A498 renal
  TGI: > 100 µM
BT-549 breast
  TGI: > 100 µM
M14 melanoma
  TGI: > 100 µM
SK-MEL-2 melanoma
  TGI: > 100 µM

## C[C@H](CCC(=O)O[C@@H]1CC[C@@]2(C)C(CC[C@H]3[C@@H]4CC[C@H]([C@H](C)CCc5nc6ccccc6[nH]5)[C@@]4(C)CC[C@@H]32)C1)[C@H]1CC[C@H]2[C@@H]3CCC4C[C@H](O)CC[C@]4(C)[C@H]3CC[C@]12C (some centres not stated)
ACHN renal
  TGI: > 100 µM
HOP-62 NSCLC
  TGI: > 100 µM
EKVX NSCLC
  TGI: > 100 µM
786-0 renal
  TGI: > 100 µM
U251 CNS
  TGI: > 100 µM
PC-3 prostate
  TGI: > 100 µM
UO-31 renal
  TGI: > 100 µM
NCI-H23 lung
  TGI: > 100 µM
IGROV1 ovarian
  TGI: > 100 µM
SK-OV-3 ovarian
  TGI: > 100 µM
SR leukemia
  TGI: > 100 µM
COLO 205 colon
  TGI: > 100 µM
SF-268 CNS
  TGI: > 100 µM
SF-295 CNS
  TGI: > 100 µM
A549 NSCLC
  TGI: > 100 µM
A498 renal
  TGI: > 100 µM
BT-549 breast
  TGI: > 100 µM
M14 melanoma
  TGI: > 100 µM
SK-MEL-2 melanoma
  TGI: > 100 µM

## CCCCCCc1cc2cc(C(=O)Nc3ccccc3F)c(=N)oc2cc1O
ACHN renal
  TGI: 25.6 µM
HOP-62 NSCLC
  TGI: 31.8 µM
EKVX NSCLC
  TGI: 32.3 µM
786-0 renal
  TGI: 24.9 µM
U251 CNS
  TGI: 17.9 µM
PC-3 prostate
  TGI: 26.8 µM
UO-31 renal
  TGI: 17.5 µM
NCI-H23 lung
  TGI: 8.03 µM
IGROV1 ovarian
  TGI: 13.7 µM
SK-OV-3 ovarian
  TGI: 29.3 µM
SR leukemia
  TGI: 50.2 µM
COLO 205 colon
  TGI: 39.3 µM
SF-268 CNS
  TGI: 59.9 µM
SF-295 CNS
  TGI: 33 µM
A549 NSCLC
  TGI: 26.9 µM
A498 renal
  TGI: 37.2 µM
BT-549 breast
  TGI: 23.2 µM
M14 melanoma
  TGI: 28.7 µM
SK-MEL-2 melanoma
  TGI: 26.8 µM

## CC(=O)c1c2c(cc3c1CC1(Cc4cc5c(cc4C1=O)CCC5)C3)CCC2 (configuration not stated)
ACHN renal
  TGI: > 100 µM
HOP-62 NSCLC
  TGI: > 100 µM
EKVX NSCLC
  TGI: > 100 µM
786-0 renal
  TGI: > 100 µM
U251 CNS
  TGI: > 100 µM
PC-3 prostate
  TGI: > 100 µM
UO-31 renal
  TGI: > 100 µM
NCI-H23 lung
  TGI: > 100 µM
IGROV1 ovarian
  TGI: > 100 µM
SK-OV-3 ovarian
  TGI: > 100 µM
SR leukemia
  TGI: > 100 µM
COLO 205 colon
  TGI: > 100 µM
SF-268 CNS
  TGI: > 100 µM
SF-295 CNS
  TGI: > 100 µM
A549 NSCLC
  TGI: > 100 µM
A498 renal
  TGI: > 100 µM
BT-549 breast
  TGI: > 100 µM
M14 melanoma
  TGI: > 100 µM
SK-MEL-2 melanoma
  TGI: > 100 µM

## Oc1ccc2ccccc2c1-c1c(Nc2ccccc2)ccc2ccccc12
ACHN renal
  TGI: 38.8 µM
HOP-62 NSCLC
  TGI: 30.1 µM
EKVX NSCLC
  TGI: 40 µM
786-0 renal
  TGI: 34.2 µM
U251 CNS
  TGI: 52 µM
PC-3 prostate
  TGI: 36.8 µM
UO-31 renal
  TGI: 29.2 µM
NCI-H23 lung
  TGI: 30 µM
IGROV1 ovarian
  TGI: 18.7 µM
SK-OV-3 ovarian
  TGI: 18.7 µM
SR leukemia
  TGI: 51.6 µM
COLO 205 colon
  TGI: 38 µM
SF-268 CNS
  TGI: 31.6 µM
SF-295 CNS
  TGI: 30.5 µM
A549 NSCLC
  TGI: 38.9 µM
A498 renal
  TGI: 36.2 µM
BT-549 breast
  TGI: 30.1 µM
M14 melanoma
  TGI: 24.4 µM
SK-MEL-2 melanoma
  TGI: 36.3 µM

## O=C(O)CN1CCNCCN(CC(=O)O)CCNCC1
ACHN renal
  TGI: > 100 µM
HOP-62 NSCLC
  TGI: > 100 µM
EKVX NSCLC
  TGI: > 100 µM
786-0 renal
  TGI: > 100 µM
U251 CNS
  TGI: > 100 µM
PC-3 prostate
  TGI: > 100 µM
UO-31 renal
  TGI: > 100 µM
NCI-H23 lung
  TGI: > 100 µM
IGROV1 ovarian
  TGI: > 100 µM
SK-OV-3 ovarian
  TGI: > 100 µM
SR leukemia
  TGI: > 96.5 µM
COLO 205 colon
  TGI: > 36.4 µM
SF-268 CNS
  TGI: > 100 µM
SF-295 CNS
  TGI: > 100 µM
A549 NSCLC
  TGI: > 100 µM
A498 renal
  TGI: > 100 µM
BT-549 breast
  TGI: > 100 µM
M14 melanoma
  TGI: > 100 µM
SK-MEL-2 melanoma
  TGI: > 100 µM
